Reference: patent EP2242752B1, “[…] IMIDAZOLES AS HEPATITIS C VIRUS INHIBITORS” (Bristol-Myers Squibb Company, priority 2008, dated 2009)

System: HCV 1b genotype
Assay: HCV Replicon assay (HCV 16-377-neo replicon cells)
Format: cell-based
Details: Hepatitis C virus; HCV 1b genotype replicon cells; read-out: EC50 ranges against HCV 1b
Description: An HCV Replion assay was utilized in the present disclosure, and was prepared, conducted and validated as described in commonly owned PCT/US2006/022197 and in O'Boyle et. al. Antimicrob Agents Chemother. 2005 Apr;49(4): 1346-53.
HCV 16-377-neo replicon cells were used to test the currently described compound series as well as cells resistant to compound A due to a Y2065H mutation in NS5A (described in application PCT/US2006/022197). The compounds tested were determined to have more than 10-fold less inhibitory activity on cells resistant to compound A than wild-type cells indicating a related mechanism of action between the two compound series. Thus, the compounds of the present disclosure can be effective to inhibit the function of the HCV NS5A protein and are understood to be as effective in combinations as previously described in application PCT/US2006/022197 and commonly owned WO/O4014852. Further, the compounds of the present disclosure can be effective against the HCV 1b genotype. It should also be understood that the compounds of the present disclosure can inhibit multiple genotypes of HCV. […] In one embodiment compounds of the present disclosure are active against the 1a, 1b, 2a, 2b, 3a, 4a, and 5a genotypes.

| SMILES | EC50 [nM] |
| --- | --- |
| COC(=O)N[C@H](C(=O)N1CCC[C@H]1c1nc(-c2ccc(-c3ccc(-c4[nH]c([C@@H]5CCCN5C(=O)[C@@H](NC(=O)OC)C(C)C)nc4C)cc3)cc2)c(C)[nH]1)C(C)C [Example E5l, methyl ((1S)-1-(((2S)-2-(4-(4'-(2-((2S)-1-((2S)-2-((methoxycarbonyl)amino)-3-methylbutanoyl)-2-pyrrolidinyl)-4-methyl-1H-imidazol-5-yl)-4-biphenylyl)-5-methyl-1H-imidazol-2-yl)-1-pyrrolidinyl)carbonyl)-2-methylpropyl)carba mate] | 0.001 to 0.999 |
| COC(=O)N[C@@H](C)C(=O)N1CC2(CC2)C[C@H]1c1nc(-c2ccc(-c3ccc(-c4c[nH]c([C@@H]5CC6(CC6)CN5C(=O)[C@H](C)NC(=O)OC)n4)cc3)cc2)c[nH]1 [Example M147, methyl ((1S)-2-((6S)-6-(4-(4'-(2-((6S)-5-(N-(methoxycarbonyl)-L-alanyl)-5-azaspiro[2.4]hept-6-yl)-1H-imidazol-4-yl)-4-biphenylyl)-1H-imidazol-2-yl)-5-azaspiro[2.4]hept-5-yl)-1-methyl-2-oxoethyl)carbam ate] | 0.001 to 0.999 |
| COC(=O)N[C@H](C(=O)N1CCC[C@H]1c1nc(-c2ccc(-c3ccc(-c4nc([C@@H]5CCCN5C(=O)[C@@H](NC(=O)OC)C(C)C)[nH]c4C)cc3)cc2)c[nH]1)C(C)C [Example E5e, methyl ((1S)-1-(((2S)-2-(4-(4'-(2-((2S)-1-((2S)-2-((methoxycarbonyl)amino)-3-methylbutanoyl)-2-pyrrolidinyl)-1H-imidazol-4-yl)-4-biphenylyl)-5-methyl-1H-imidazol-2-yl)-1-pyrrolidinyl)carbonyl)-2-methylpropyl)carba mate] | 0.001 to 0.999 |
| COC(=O)N[C@H](C(=O)N1[C@@H]2C[C@@H]2C[C@H]1c1nc(-c2ccc(-c3ccc(-c4c[nH]c([C@@H]5C[C@H]6C[C@H]6N5C(=O)[C@@H](NC(=O)OC)C5CC5)n4)cc3)cc2)c[nH]1)C1CC1 [Example M135, dimethyl (4,4'-biphenyldiylbis(1H-imidazole-4,2-diyl(1R,3S,5R)-2-azabicyclo[3.1.0]hexane-3,2-diyl((1S)-1-cyclopropyl-2-oxo-2,1-ethanediyl)))biscarbamate] | 0.001 to 0.999 |
| COC(=O)N[C@H](C(=O)N1[C@@H]2C[C@@H]2C[C@H]1c1nc(-c2ccc(-c3ccc(-c4c[nH]c([C@@H]5CC6C[C@H]6N5C(C)=O)n4)cc3)cc2)c[nH]1)C(C)C (mixture of isomers) [Example M138, methyl ((1S)-1-(((1R,3S,5R)-3-(4-(4'-(2-((1R,3S,SR)-2-acetyl-2-azabicyclo[3.1.0]hex-3yl)-1Himidazol-4yl)-4-biphenylyl)-1Himidazol-2-yl)-2-azabicyclo[3.1.0]hex-2-yl)carbonyl)-2-methylpropyl)carbamate] | 0.001 to 0.999 |
| COC(=O)N[C@H](C(=O)N1[C@@H]2C[C@@H]2C[C@H]1c1ncc(-c2ccc(-c3ccc(-c4cnc([C@@H]5C[C@H]6C[C@H]6N5C(=O)CCCC[C@@H]5SC[C@@H]6NC(=O)N[C@@H]65)[nH]4)cc3)cc2)[nH]1)C(C)C [Example M139] | 0.001 to 0.999 |
| CC(=O)N[C@H](C(=O)N1[C@@H]2C[C@@H]2C[C@H]1c1ncc(-c2ccc(-c3ccc(-c4cnc([C@@H]5C[C@H]6C[C@H]6N5C(=O)[C@@H](NC(C)=O)C(C)C)[nH]4)cc3)cc2)[nH]1)C(C)C [Example M140, N((1S)-1-(((1R,3S,SR)-3-(4-(4'-(2-((1R,3S,SR)-2-((2S)-2-acetamido-3-methylbutanoyl)-2-azabicyclo[3.1.0]hex-3-yl)-1H-imidazol-4-yl)-4-biphenylyl)-1H imidazol-2-yl)-2-azabicyclo[3.1.0]hex-2-yl)carbonyl)-2-methylpropyl)acetamide] | 0.001 to 0.999 |
